From ChEMBL document CHEMBL5584338, “Design, Synthesis, and Biological Evaluation of 5-Amino-4-fluoro-1H-benzo[d]imidazole-6-carboxamide Derivatives as Novel and Potential MEK/RAF Complex Inhibitors Based on the "Clamp" Strategy” (J Med Chem, 2024)
The source made the active and inactive calls. The rule behind the calls is not given here.

Tests used:
MIA PaCa-2 [1] = assay: Induction of apoptosis in human MIA PaCa-2 cells assessed as increase in cleaved caspase-3 level upto 1 uM incubated for 24 hrs by Western blot analysis; assay type: functional, cell-based
[2] = Toxicity in NU/NU mouse xenografted with human HCT-116 cells harboring KRAS G13D mutant assessed as body weight change at 15 to 30 mg/kg, iv administered 5 times a week for 16 days; assay type: organism-based; details: in vivo, 384 h, dose 15-30 mg/kg, time 16 day
[3] = Antiproliferative activity against rat H9c2 cells incubated for 72 hrs by CCK8 assay; assay type: toxicity, cell-based
[4] = Cmax in Sprague-Dawley rat at 5 mg/kg, iv; assay type: ADME, organism-based; details: in vivo
HCT-116 [5] = assay: Inhibition of colony formation in human HCT-116 cells incubated for 10 days by crystal violet staining based analysis; assay type: functional, cell-based; details: dose 0.1-10 µM, time 10.0 day
MIA PaCa-2 [6] = assay: Antiproliferative activity against human MIA PaCa-2 cells harboring KRAS G12C mutant at 0.1 uM incubated for 72 hrs by CCK8 assay relative to control; assay type: functional
MIA PaCa-2 [7] = assay: Stabilization of MEK1/2/BRAF complex in human MIA PaCa-2 cells at 100 nM incubated for 4 hrs by co-immunoprecipitation method; assay type: cell-based
[8] = target: Dual specificity mitogen-activated protein kinase kinase 1 (Homo sapiens, UniProt Q02750); assay: Inhibition of MEK1 (unknown origin)
HCT-116 [9] = assay: Antitumor activity against human HCT-116 cells harboring KRAS G13D mutant xenografted in NU/NU mouse assessed as tumor growth inhibition administered intravenously 5 times a week for 16 days; assay type: functional, cell-based; details: dose 15-30 mg/kg, route iv, time 16.0 day
[10] = Antitumor activity against mouse C26 cells harboring KRAS G12D mutant xenografted in BALB/c mouse at 30 mg/kg, iv administered 5 times a week for 12 days relative to control; assay type: functional, C-26; details: C26, 288 h, time 12 day, read-out: TGI
MIA PaCa-2 [11] = assay: Induction of apoptosis in human MIA PaCa-2 cells assessed as early apoptotic cells at 5 uM incubated for 24 hrs by Annexin V-FITC/PI staining based flow cytometry (reference value: 5.02 %); assay type: functional
HUVEC = assay: Inhibition of cell migration in human HUVEC cells at 0.01 to 1 uM incubated for 24 hrs by wound healing assay; assay type: functional, cell-based; details: dose 0.01-1 µM
Homo sapiens = organism: Homo sapiens; assay: Inhibition of BRAF […] mutant (unknown origin) at 1 uM by kinase profiling analysis
HCT-116 [12] = assay: Antiproliferative activity against human HCT-116 cells harboring KRAS G13D mutant at 1 uM incubated for 72 hrs by CCK8 assay relative to control; assay type: functional
MIA PaCa-2 [13] = assay: Induction of apoptosis in human MIA PaCa-2 cells assessed as late apoptotic cells at 0.25 uM incubated for 24 hrs by Annexin V-FITC/PI staining based flow cytometry (reference value: 6.90 %); assay type: functional
[14] = Stability in human liver microsomes assessed as half life at 200 uM preincubated for 5 mins followed by NADPH addition measured upto 60 mins by LC-MS/MS analysis; assay type: ADME, Microsome; details: time 65 min
[15] = Toxicity in BALB/c mouse xenografted with […] harboring KRAS G12D mutant assessed as animal death at 5 to 30 mg/kg, iv administered 5 times a week for 12 days; assay type: organism-based, C-26; details: in vivo, 288 h, dose 5-30 mg/kg, time 12 day
HCT-116 [16] = assay: Induction of cell cycle arrest at G0/G1 phase in human HCT-116 cells at 0.1 to 2.5 uM incubated for 24 hrs by PI/RNase staining based flow cytometry (reference value: 61.35 %); assay type: functional; details: dose 0.1-2.5 µM
MIA PaCa-2 [17] = assay: Induction of apoptosis in human MIA PaCa-2 cells assessed as late apoptotic cells at 0.05 uM incubated for 24 hrs by Annexin V-FITC/PI staining based flow cytometry (reference value: 6.90 %); assay type: functional
[18] = test system: Mitogen-activated protein kinase 1/3 (ERK1/2) (Homo sapiens); assay: Inhibition of ERK phosphorylation in human MIA PaCa-2 cells at lower concentration incubated for at least 48 hrs by Western blot analysis
[19] = target: RAF proto-oncogene serine/threonine-protein kinase (Homo sapiens) (UniProt P04049); assay: Binding affinity to CRAF (unknown origin) at 1 uM by kinase profiling analysis
[20] = Toxicity in NU/NU mouse xenografted with human HCT-116 cells harboring KRAS G13D mutant assessed as animal death at 15 to 30 mg/kg, iv administered 5 times a week for 16 days; assay type: organism-based; details: in vivo, 384 h, dose 15-30 mg/kg, time 16 day
[21] = Half life in Sprague-Dawley rat at 5 mg/kg, iv; assay type: ADME, organism-based; details: in vivo
[22] = Antiproliferative activity against mouse C26 cells harboring KRAS G12D mutant incubated for 72 hrs by CCK8 assay; assay type: functional, cell-based, C-26; details: C26, 72 h
MIA PaCa-2 [23] = assay: Induction of apoptosis in human MIA PaCa-2 cells assessed as late apoptotic cells at 5 uM incubated for 24 hrs by Annexin V-FITC/PI staining based flow cytometry (reference value: 6.90 %); assay type: functional
[24] = target: T1, Serine/threonine-protein kinase B-raf (Homo sapiens, UniProt P15056); assay: Inhibition of BRAF (unknown origin) at 1 uM by kinase profiling analysis
HeLa = assay: Antiproliferative activity against human HeLa cells incubated for 72 hrs by CCK8 assay; assay type: functional, cell-based
[25] = target: Dual specificity mitogen-activated protein kinase kinase; MEK1/2 (Homo sapiens) (UniProt P36507+Q02750); assay: Inhibition of MEK phosphorylation in human MIA PaCa-2 cells upto 1 uM incubated for 4 hrs by Western blot analysis; assay type: cell-based
[26] = target: T1, Serine/threonine-protein kinase B-raf; assay: Inhibition of BRAF (unknown origin) assessed as remaining activity at 0.1 uM relative to control
C-26 = assay: Antitumor activity against mouse C26 cells harboring KRAS G12D mutant xenografted in BALB/c mouse assessed as tumor growth inhibition administered intravenously 5 times a week for 12 days; assay type: functional, cell-based; details: dose 5-30 mg/kg, route iv, time 12.0 day
HCT-116 [27] = assay: Antiproliferative activity against human HCT-116 cells harboring KRAS G13D mutant incubated for 72 hrs by CCK8 assay; assay type: functional, cell-based; details: HCT-116, 72 h
MIA PaCa-2 [28] = assay: Induction of apoptosis in human MIA PaCa-2 cells assessed as late apoptotic cells at 1 uM incubated for 24 hrs by Annexin V-FITC/PI staining based flow cytometry (reference value: 6.90 %); assay type: functional
MIA PaCa-2 [29] = assay: Antiproliferative activity against human MIA PaCa-2 cells harboring KRAS G12C mutant incubated for 72 hrs by CCK8 assay; assay type: functional, cell-based; details: MIA PaCa-2, 72 h
[30] = target: Dual specificity mitogen-activated protein kinase kinase 2 (Homo sapiens) (UniProt P36507); assay: Binding affinity to MEK2 (unknown origin) at 1 uM by kinase profiling analysis
MIA PaCa-2 [31] = assay: Inhibition of MEK1/2/BRAF complex in human MIA PaCa-2 cells at 100 nM incubated for 4 hrs by co-immunoprecipitation method; assay type: cell-based
[32] = Toxicity in BALB/c mouse xenografted with […] harboring KRAS G12D mutant assessed as body weight change at 5 to 30 mg/kg, iv administered 5 times a week for 12 days; assay type: organism-based, C-26; details: in vivo, 288 h, dose 5-30 mg/kg, time 12 day

T1 sequence (P15056 whole entry): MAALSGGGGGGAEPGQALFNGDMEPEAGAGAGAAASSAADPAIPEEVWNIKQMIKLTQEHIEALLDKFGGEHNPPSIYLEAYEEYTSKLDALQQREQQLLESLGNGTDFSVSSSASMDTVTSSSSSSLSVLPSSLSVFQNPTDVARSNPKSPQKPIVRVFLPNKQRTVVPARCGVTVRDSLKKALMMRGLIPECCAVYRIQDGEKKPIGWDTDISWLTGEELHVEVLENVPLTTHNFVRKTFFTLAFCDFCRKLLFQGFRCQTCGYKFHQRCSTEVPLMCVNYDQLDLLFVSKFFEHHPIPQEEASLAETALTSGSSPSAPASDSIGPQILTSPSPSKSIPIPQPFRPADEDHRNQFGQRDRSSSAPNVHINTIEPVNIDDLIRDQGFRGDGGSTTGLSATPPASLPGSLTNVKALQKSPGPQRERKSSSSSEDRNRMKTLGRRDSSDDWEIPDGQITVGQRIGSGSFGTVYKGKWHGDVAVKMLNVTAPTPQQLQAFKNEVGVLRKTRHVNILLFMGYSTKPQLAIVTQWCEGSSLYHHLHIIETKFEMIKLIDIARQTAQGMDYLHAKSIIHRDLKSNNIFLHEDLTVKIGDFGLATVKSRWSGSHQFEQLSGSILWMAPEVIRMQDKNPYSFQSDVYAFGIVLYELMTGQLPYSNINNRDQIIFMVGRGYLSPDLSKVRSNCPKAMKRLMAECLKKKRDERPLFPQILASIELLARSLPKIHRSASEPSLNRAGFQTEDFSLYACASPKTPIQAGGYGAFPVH
Sequence of RAF proto-oncogene serine/threonine-protein kinase (Homo sapiens) (P04049 whole entry): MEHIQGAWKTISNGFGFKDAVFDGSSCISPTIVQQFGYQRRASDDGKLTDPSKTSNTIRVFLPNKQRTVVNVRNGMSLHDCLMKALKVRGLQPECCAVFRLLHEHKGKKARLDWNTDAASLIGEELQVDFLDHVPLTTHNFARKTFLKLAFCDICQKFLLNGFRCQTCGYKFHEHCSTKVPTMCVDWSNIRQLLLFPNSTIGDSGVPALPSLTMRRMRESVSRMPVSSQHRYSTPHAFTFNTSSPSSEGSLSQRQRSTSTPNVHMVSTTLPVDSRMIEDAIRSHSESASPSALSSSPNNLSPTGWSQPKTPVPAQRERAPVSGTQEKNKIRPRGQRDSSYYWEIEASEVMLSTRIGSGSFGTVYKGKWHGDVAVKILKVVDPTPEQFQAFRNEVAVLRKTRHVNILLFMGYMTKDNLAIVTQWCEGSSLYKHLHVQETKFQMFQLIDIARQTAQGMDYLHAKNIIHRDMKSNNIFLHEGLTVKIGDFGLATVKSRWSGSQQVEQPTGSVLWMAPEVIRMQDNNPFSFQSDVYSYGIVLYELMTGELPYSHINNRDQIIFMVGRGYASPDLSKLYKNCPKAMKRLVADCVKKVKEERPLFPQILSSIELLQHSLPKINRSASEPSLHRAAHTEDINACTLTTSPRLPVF
Sequence of Dual specificity mitogen-activated protein kinase kinase; MEK1/2 (Homo sapiens) (P36507 whole entry, looked up): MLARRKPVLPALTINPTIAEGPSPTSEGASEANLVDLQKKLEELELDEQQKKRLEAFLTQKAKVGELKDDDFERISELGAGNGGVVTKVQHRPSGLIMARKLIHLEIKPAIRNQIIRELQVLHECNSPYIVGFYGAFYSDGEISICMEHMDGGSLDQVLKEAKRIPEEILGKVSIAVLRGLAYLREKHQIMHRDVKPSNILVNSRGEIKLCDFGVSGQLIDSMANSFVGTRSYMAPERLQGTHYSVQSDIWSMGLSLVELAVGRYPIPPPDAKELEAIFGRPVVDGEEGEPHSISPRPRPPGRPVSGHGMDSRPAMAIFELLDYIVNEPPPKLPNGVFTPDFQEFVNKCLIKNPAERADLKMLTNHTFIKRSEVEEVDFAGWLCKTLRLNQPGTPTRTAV
Sequence of Dual specificity mitogen-activated protein kinase kinase; MEK1/2 (Homo sapiens) (Q02750 whole entry, looked up): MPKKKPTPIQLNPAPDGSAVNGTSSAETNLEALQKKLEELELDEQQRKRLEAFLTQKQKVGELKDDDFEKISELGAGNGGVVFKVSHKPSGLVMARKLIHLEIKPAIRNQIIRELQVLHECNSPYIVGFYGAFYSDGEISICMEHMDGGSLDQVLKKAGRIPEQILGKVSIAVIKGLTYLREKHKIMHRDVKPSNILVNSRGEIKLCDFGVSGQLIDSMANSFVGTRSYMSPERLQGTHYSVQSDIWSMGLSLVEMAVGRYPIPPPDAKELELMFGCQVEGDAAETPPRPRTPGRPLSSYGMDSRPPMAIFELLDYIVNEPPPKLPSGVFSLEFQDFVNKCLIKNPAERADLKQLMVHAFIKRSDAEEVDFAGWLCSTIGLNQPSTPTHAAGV
Sequence of Dual specificity mitogen-activated protein kinase kinase 2 (Homo sapiens) (P36507 whole entry): as the sequence (P36507 whole entry, looked up) above
Sequence of Dual specificity mitogen-activated protein kinase kinase 1 (Q02750 whole entry): as the sequence (Q02750 whole entry, looked up) above

## CCNS(=O)(=O)Nc1cccc(Cn2cnc3c(F)c(Nc4ccc(C5CC5)cc4F)c(C(=O)NOCCO)cc32)c1F
MIA PaCa-2 [1]
  Activity: Active
[2]
  Activity: Non-Toxic
[3]
  IC50 at 72 h: > 50000 nM
[4]
  Cmax: 603 ng/mL
HCT-116 [5]
  inhibition: Dose-Dependent Effect
MIA PaCa-2 [6]
  inhibition at 0.1 µM: 85%
MIA PaCa-2 [7]
  Activity: Active
[8]
  IC50: 28 nM
HCT-116 [9]
  inhibition: Active
[10]
  inhibition in vivo at 30 mg/kg: 70%
MIA PaCa-2 [11]
  Activity: 42.1%
HUVEC
  inhibition: Active
Homo sapiens
  inhibition: Active
HCT-116 [12]
  inhibition at 1 µM: 61.5%
MIA PaCa-2 [13]
  Activity: 7.36%
[14]
  half-life at 200 µM: 58.7 min
[15]
  Activity: Non-Toxic
HCT-116 [16]
  Activity: 79.63%
MIA PaCa-2 [17]
  Activity: 6.59%
[18]
  inhibition: Active
[19]
  Activity: Active
[20]
  Activity: Non-Toxic
[21]
  half-life: 55.2 min
[22]
  IC50: 96 nM
MIA PaCa-2 [23]
  Activity: 9.09%
[24]
  inhibition: Active
HeLa
  IC50: > 10000 nM
[25]
  inhibition: Active
[26]
  Activity: -3%
C-26
  inhibition: Active
HCT-116 [27]
  IC50: 79 nM
MIA PaCa-2 [28]
  Activity: 8.21%
MIA PaCa-2 [29]
  IC50: 11 nM
[30]
  Activity: Active
MIA PaCa-2 [31]
  inhibition: Active
[32]
  Activity: Non-Toxic
